Several values for one entry are separate records, joined by “and”; a condition that tells them apart may be missing. Equal entries are not always repeated.
Tests used:
[1] = system: SARS-CoV-2 replicon system (pBAC-SARS-CoV-2-Replicon-Luc); assay: microbe, parasite or virus in culture; format: cell-based; details: Severe acute respiratory syndrome coronavirus 2, HEK-293T, 60 h
[2] = system: SARS-CoV-2 (B.1); assay: Anti-SARS-CoV-2 activity in Vero E6 cells (viral yield by qRT-PCR); format: cell-based
[3] = system: SARS-CoV-2 (Beta, B.1.351); assay: microbe, parasite or virus in culture; format: cell-based; details: for % Inhibition: beta
[4] = system: SARS-CoV-2 (Delta, B.1.617.2); assay: microbe, parasite or virus in culture; format: cell-based; details: for % Inhibition: delta
[5] = system: SARS-CoV-2 (B.1) in Huh7 cells; assay: Anti-SARS-CoV-2 activity in Huh7 cells (viral yield by qRT-PCR); format: cell-based; details: B.1, MOI 0.05, 48 h
[6] = CCK-8 cell viability assay; format: cell-based, African green monkey; details: African green monkey; Vero E6 cells, 48 h, CCK8
Summary of the method: (§1)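 Vero E6 cells, 20,000/well, exposed to compound at 0–200 μM (0, 0.01, 0.1, 1, 5, 10, 50, 75, 100, 200 μM) for 48 h; viability read by CCK-8 and expressed as percentage versus drug concentration, mean ± SD.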

[7] = system: Vero E6 cells; assay: CCK-8 cell viability assay; format: cell-based, African green monkey; details: individual replicate values, Fig.S4
Summary of the method: as §1

Compound: N#C[C@@]1(c2ccc3c(N)ncnn23)O[C@H](COC(=O)c2ccccc2)[C@@H](O)[C@H]1O [ATV013]
- EC50 ([1]; read-out: EC50 (Confidence 95%), replicon): 497 nM
- EC90 ([1]; read-out: EC90 (Confidence 95%), replicon): 1140 nM
- % Inhibition ([2]; 0.1 μM, replicates, sheet Fig.S3): 0%
- % Inhibition ([2]; 0.5 μM, replicates, sheet Fig.S3): 0%
- % Inhibition ([2]; 1 μM, replicates, sheet Fig.S3): 54.9033%
- % Inhibition ([2]; 2 μM, replicates, sheet Fig.S3): 83.4601%
- % Inhibition ([2]; 5 μM, replicates, sheet Fig.S3): 91.8254%
- % Inhibition ([2]; 10 μM, replicates, sheet Fig.S3): 91.2053%
- % Inhibition ([2]; B.1, 0.01 uM, Vero E6, replicates): 0%
- % Inhibition ([2]; B.1, 0.1 uM, Vero E6, replicates): 0%
- % Inhibition ([2]; B.1, 0.25 uM, Vero E6, replicates): 0%
- % Inhibition ([2]; B.1, 0.5 uM, Vero E6, replicates): 0%
- % Inhibition ([2]; B.1, 1 uM, Vero E6, replicates): 0%
- % Inhibition ([2]; B.1, 5 uM, Vero E6, replicates, 5 µM): 99.7536%
- % Inhibition ([2]; B.1, 10 uM, Vero E6, replicates, 10 µM): 99.9918%
- % Inhibition ([2]; B.1, 50 uM, Vero E6, replicates, 50 µM): 99.9922%
- inhibition at 0.1 µM ([2]; Severe acute respiratory syndrome coronavirus 2, Vero C1008, 0.1 μM, replicates, sheet Fig.S3): 0%
- inhibition at 0.5 µM ([2]; Severe acute respiratory syndrome coronavirus 2, Vero C1008, 0.5 μM, replicates, sheet Fig.S3): 0%
- inhibition at 1 µM ([2]; Severe acute respiratory syndrome coronavirus 2, Vero C1008, 1 μM, replicates, sheet Fig.S3): 62%
- inhibition at 2 µM ([2]; Severe acute respiratory syndrome coronavirus 2, Vero C1008, 2 μM, replicates, sheet Fig.S3): 83.8%
- inhibition at 5 µM ([2]; Severe acute respiratory syndrome coronavirus 2, Vero C1008, 5 μM, replicates, sheet Fig.S3): 93.6%
- inhibition at 10 µM ([2]; Severe acute respiratory syndrome coronavirus 2, Vero C1008, 10 μM, replicates, sheet Fig.S3): 93.5%
- inhibition at 0.01 µM ([2]; Severe acute respiratory syndrome coronavirus 2, Vero C1008, B.1, 0.01 uM, Vero E6, replicates): 0%
- inhibition at 0.1 µM ([2]; Severe acute respiratory syndrome coronavirus 2, Vero C1008, B.1, 0.1 uM, Vero E6, replicates): 0%
- inhibition at 0.25 µM ([2]; Severe acute respiratory syndrome coronavirus 2, Vero C1008, B.1, 0.25 uM, Vero E6, replicates): 0%
- inhibition at 0.5 µM ([2]; Severe acute respiratory syndrome coronavirus 2, Vero C1008, B.1, 0.5 uM, Vero E6, replicates): 0%
- inhibition at 1 µM ([2]; Severe acute respiratory syndrome coronavirus 2, Vero C1008, B.1, 1 uM, Vero E6, replicates): 0%
- inhibition at 5 µM ([2]; Severe acute respiratory syndrome coronavirus 2, Vero C1008, B.1, 5 uM, Vero E6, replicates): 99.5%
- inhibition at 10 µM ([2]; Severe acute respiratory syndrome coronavirus 2, Vero C1008, B.1, 10 uM, Vero E6, replicates): 100%
- inhibition at 50 µM ([2]; Severe acute respiratory syndrome coronavirus 2, Vero C1008, B.1, 50 uM, Vero E6, replicates): 100%
- EC90 ([2]; Severe acute respiratory syndrome coronavirus 2, Vero C1008, read-out: EC90 (Confidence 95%)): 2870 nM
- EC50 ([2]; Severe acute respiratory syndrome coronavirus 2, Vero C1008, MOI 0.05, 48 h): 2260 nM
- EC50 ([3]; Severe acute respiratory syndrome coronavirus 2, Vero C1008, 48 h, read-out: EC50 in Vero E6 cells, SARS-CoV-2 (Beta, B.1.351)): 2430 nM
- inhibition at 0.01 µM ([3]; Severe acute respiratory syndrome coronavirus 2, Vero C1008, beta, 0.01 uM, Vero E6, replicates): 0%
- inhibition at 0.1 µM ([3]; Severe acute respiratory syndrome coronavirus 2, Vero C1008, beta, 0.1 uM, Vero E6, replicates): 0%
- inhibition at 0.25 µM ([3]; Severe acute respiratory syndrome coronavirus 2, Vero C1008, beta, 0.25 uM, Vero E6, replicates): 0%
- inhibition at 0.5 µM ([3]; Severe acute respiratory syndrome coronavirus 2, Vero C1008, beta, 0.5 uM, Vero E6, replicates): 0%
- inhibition at 1 µM ([3]; Severe acute respiratory syndrome coronavirus 2, Vero C1008, beta, 1 uM, Vero E6, replicates): 0%
- inhibition at 2 µM ([3]; Severe acute respiratory syndrome coronavirus 2, Vero C1008, beta, 2 uM, Vero E6, replicates): 23.7%
- inhibition at 5 µM ([3]; Severe acute respiratory syndrome coronavirus 2, Vero C1008, beta, 5 uM, Vero E6, replicates): 99.7%
- inhibition at 10 µM ([3]; Severe acute respiratory syndrome coronavirus 2, Vero C1008, beta, 10 uM, Vero E6, replicates): 99.9%
- inhibition at 50 µM ([3]; Severe acute respiratory syndrome coronavirus 2, Vero C1008, beta, 50 uM, Vero E6, replicates): 99.9%
- EC90 ([3]; Severe acute respiratory syndrome coronavirus 2, Vero C1008, read-out: EC90 (Confidence 95%), Vero-E6, Beta B.1.351): 3090 nM
- % Inhibition ([3]; 0.01 uM, Vero E6, replicates): 0%
- % Inhibition ([3]; 0.1 uM, Vero E6, replicates): 0%
- % Inhibition ([3]; 0.25 uM, Vero E6, replicates): 0%
- % Inhibition ([3]; 0.5 uM, Vero E6, replicates): 0%
- % Inhibition ([3]; 1 uM, Vero E6, replicates): 0%
- % Inhibition ([3]; 2 uM, Vero E6, replicates): 12.3832%
- % Inhibition ([3]; 5 uM, Vero E6, replicates): 99.5222%
- % Inhibition ([3]; 10 uM, Vero E6, replicates): 99.9634%
- % Inhibition ([3]; 50 uM, Vero E6, replicates): 99.9455%
- EC50 ([4]; Severe acute respiratory syndrome coronavirus 2, Vero C1008, 48 h, read-out: EC50 in Vero E6 cells, SARS-CoV-2 (Delta, B.1.617.2)): 965 nM
- inhibition at 0.01 µM ([4]; Severe acute respiratory syndrome coronavirus 2, Vero C1008, delta, 0.01 uM, Vero E6, replicates): 0%
- inhibition at 0.1 µM ([4]; Severe acute respiratory syndrome coronavirus 2, Vero C1008, delta, 0.1 uM, Vero E6, replicates): 0%
- inhibition at 0.25 µM ([4]; Severe acute respiratory syndrome coronavirus 2, Vero C1008, delta, 0.25 uM, Vero E6, replicates): 0%
- inhibition at 1 µM ([4]; Severe acute respiratory syndrome coronavirus 2, Vero C1008, delta, 1 uM, Vero E6, replicates): 50.4%
- inhibition at 2 µM ([4]; Severe acute respiratory syndrome coronavirus 2, Vero C1008, delta, 2 uM, Vero E6, replicates): 93.4%
- inhibition at 5 µM ([4]; Severe acute respiratory syndrome coronavirus 2, Vero C1008, delta, 5 uM, Vero E6, replicates): 96.1%
- inhibition at 10 µM ([4]; Severe acute respiratory syndrome coronavirus 2, Vero C1008, delta, 10 uM, Vero E6, replicates): 99.7%
- inhibition at 50 µM ([4]; Severe acute respiratory syndrome coronavirus 2, Vero C1008, delta, 50 uM, Vero E6, replicates): 100%
- EC90 ([4]; Severe acute respiratory syndrome coronavirus 2, Vero C1008, read-out: EC90 (Confidence 95%), Vero-E6, Delta B.1.617.2): 1410 nM
- % Inhibition ([4]; 0.01 uM, Vero E6, replicates): 0%
- % Inhibition ([4]; 0.1 uM, Vero E6, replicates): 0%
- % Inhibition ([4]; 0.25 uM, Vero E6, replicates): 0%
- % Inhibition ([4]; 0.5 uM, Vero E6, replicates): 0.1843% and 0%
- % Inhibition ([4]; 1 uM, Vero E6, replicates): 60.4565%
- % Inhibition ([4]; 2 uM, Vero E6, replicates): 90.993%
- % Inhibition ([4]; 5 uM, Vero E6, replicates): 93.9334%
- % Inhibition ([4]; 10 uM, Vero E6, replicates): 98.4346%
- % Inhibition ([4]; 50 uM, Vero E6, replicates): 99.9058%
- EC50 ([5]; Severe acute respiratory syndrome coronavirus 2, Huh-7, read-out: EC50 (Confidence 95%) in Huh7 cells): 964 nM
- EC90 ([5]; Severe acute respiratory syndrome coronavirus 2, Huh-7, read-out: EC90 (Confidence 95%) in Huh7 cells): 1320 nM
- CC50 at 48 h [6]: > 50000 nM
- cell viability (% of control) ([7]; 1 μM compound, 1 µM): 66.6435 % of control and 71.881 % of control and 81.6609 % of control
- cell viability (% of control) ([7]; 2 μM compound, 2 µM): 62.1939 % of control and 100.479 % of control and 98.8104 % of control
- cell viability (% of control) ([7]; 5 μM compound, 5 µM): 79.1116 % of control and 101.73 % of control and 106.643 % of control
- cell viability (% of control) ([7]; 10 μM compound, 10 µM): 79.4361 % of control and 86.4349 % of control and 92.6458 % of control
- cell viability (% of control) ([7]; 20 μM compound, 20 µM): 76.9332 % of control and 94.4535 % of control and 115.728 % of control
- cell viability (% of control) ([7]; 50 μM compound, 50 µM): 73.9991 % of control and 102.436 % of control and 88.29 % of control

— paper PMC9161374 (Science Translational Medicine, 2022)
